Read-outs that look alike come from different tables or passages of the source.
Tests used:
[1] = Plasma and urine pharmacokinetics, noncompartmental analysis; type: in vivo, human; settings: for half-life / Tmax: human, plasma; for half-life: po; for Tmax: oral
Procedure: (§1) DLTs included: cycle 1 grade ≥3 hematologic and non-hematologic events or grade 2 non-hematologic events considered by the investigator to be TAK-931-related, grade 2 ejection fraction decrease, >2 weeks delay in initiating cycle 2 (1 week for schedules D and E), and >50% TAK-931 dose reduction in cycle 1 due to treatment-related adverse events (AEs; see Supplementary Materials and Methods for full DLT criteria). Toxicity was evaluated by NCI Common Terminology Criteria for Adverse Events (version 4.03). Tumor response was measured using the RECIST (version 1.1) ([16]). Serial blood samples for pharmacokinetic analysis were collected during cycle 1 on days 1 and 7 (schedule B), 1 and 8 (schedules A and D), or 1 and 9 (schedule E). Pharmacokinetic parameters were estimated from concentration–time profiles using noncompartmental methods with WinNonlin® Phoenix™ version 8.1 (Certara, Princeton, NJ). pMCM2 was detected semiquantitatively by IHC of histologic sections of formalin-fixed, paraffin-embedded skin and tumor biopsies using anti-pMCM2 (3378-1, Epitomics Inc.; ref. [15]). Quantitative image analysis determined pMCM2 levels as “histologic score nuclei (H-score).” Skin punch biopsies (2–4 mm) were obtained during screening or predose on cycle 1, day 1 and for patients in schedules A, B, and D, postdose on any drug dosing day after 3 consecutive dosing days in cycle 1. A postdose skin biopsy was obtained on day 9 in schedule E. Fresh tumor biopsy pairs were collected predose and postdose on any dosing day after the completion of 3 consecutive dosing days in cycle 1 from patients who received doses considered to have biological effect.
(§2) The safety population included patients who received ≥1 dose of TAK-931. The pharmacodynamic-evaluable population comprised patients from the safety population with a baseline and ≥1 additional postbaseline biopsy sample that was suitable for pMCM2 analysis. The pharmacokinetic-evaluable population included patients with sufficient dosing and TAK-931 concentration–time data to estimate pharmacokinetic parameters. The response-evaluable population included patients in the safety population with measurable disease at baseline and ≥1 postbaseline response assessment.

[2] = tested on: skin phosphorylated MCM2 (pMCM2; a CDC7 substrate); assay: pMCM2 IHC (H-score) in skin punch biopsies; type: in vivo, human
Source text: The primary objectives were to evaluate safety, tolerability, and to identify the MTD of TAK-931. Secondary objectives were to characterize the pharmacokinetics of TAK-931, assess pharmacodynamic effects of TAK-931 by measuring basal and postdose levels of skin phosphorylated MCM2 (pMCM2; a CDC7 substrate), and assess preliminary clinical activity of TAK-931. An exploratory objective was to assess the pharmacodynamic effect of TAK-931 in fresh tumor biopsies after multiple doses of TAK-931 that were considered to have biological effect.
as §1, §2

advanced solid tumors = assay: Tumor response by RECIST version 1.1; type: in vivo, human; set-up: key to Best response, individual patient: PD: progressive disease; PR: partial response; SD: stable disease; settings: for Duration of SD / Duration PR maintained: 1 patient
Procedure: as §1, §2

[3] = animal toxicology studies; used as escalation limit; cited from earlier work

## Cc1[nH]ncc1-c1cc2nc([C@@H]3CC4CCN3CC4)[nH]c(=O)c2s1 [TAK-931, simurosertib]
[1]; 120 and 150 mg
  Accumulation following higher doses: minor accumulation
[1]; estimated amount excreted in urine, n = 79
  Renal clearance (CLr) as share of total apparent clearance: approximately 8%
[1]; 50 mg, oral administration of 50 mg, read-out: Terminal half-life (converted)
  half-life: ~5 h
[1]; oral administration, read-out: Estimated T1/2
  half-life: 5 to 6 h
[1]; oral administration, read-out: Mean half-life (T1/2)
  half-life: 4.58 to 6.53 h
[1]; 50 mg dose, read-out: Tmax
  Tmax: ~2 h
[1]; postdose, over the dose range of 20–50 mg, read-out: Median time to maximum plasma concentration (Tmax)
  Tmax: 1 to 4 h
[1]; multiple dosing
  Systemic exposures between day 1 and days 7, 8, or 9: mostly unchanged
[1]; single- and multiple-dose administration over 20–50 mg
  Plasma exposure vs dose: approximately dose proportional
[1]; single- and multiple-dose administration over the range 20–150 mg
  Systemic exposure vs dose (dose-normalized AUC24): approximately dose proportional
[2]; Schedule A (30 mg), n = 3, baseline mean H-score 18.47 (8.45)
  Skin pMCM2 Mean H-score (StDev), Cycle 1, day 8: 10.93 (6.57)
[2]; Schedule A (30 mg), n = 3, cycle 1, day 8
  % of pMCM2 inhibition (Change from baseline), skin: 40.8%
[2]; Schedule A (40 mg), n = 3, baseline mean H-score 19.53 (3.78)
  Skin pMCM2 Mean H-score (StDev), Cycle 1, day 8: 12.87 (12.19)
[2]; Schedule A (40 mg), n = 3, cycle 1, day 8
  % of pMCM2 inhibition (Change from baseline), skin: 34.1%
[2]; Schedule A (50 mg), n = 14, baseline mean H-score 10.50 (5.85)
  Skin pMCM2 Mean H-score (StDev), Cycle 1, day 8: 3.76 (5.42)
[2]; Schedule A (50 mg), n = 14, cycle 1, day 8
  % of pMCM2 inhibition (Change from baseline), skin: 64.2%
[2]; Schedule A (60 mg), n = 3, baseline mean H-score 10.93 (1.94)
  Skin pMCM2 Mean H-score (StDev), Cycle 1, day 8: 1.00 (0.60)
[2]; Schedule A (60 mg), n = 3, cycle 1, day 8
  % of pMCM2 inhibition (Change from baseline), skin: 90.9%
[2]; Schedule B (60 mg), n = 3, baseline mean H-score 4.40 (2.96)
  Skin pMCM2 Mean H-score (StDev), Cycle 1, day 8: 0.67 (0.46)
[2]; Schedule B (80 mg), n = 9, baseline mean H-score 12.72 (2.02)
  Skin pMCM2 Mean H-score (StDev), Cycle 1, day 8: 3.54 (6.19)
[2]; Schedule B (80 mg), n = 9, cycle 1, day 8
  % of pMCM2 inhibition (Change from baseline), skin: 72.2%
[2]; Schedule D (20 mg), baseline n = 6, cycle 1, day 8 n = 4
  % of pMCM2 inhibition (Change from baseline), skin: 77.1%
[2]; Schedule D (20 mg), baseline n = 6, cycle 1, day 8 n = 4, baseline mean H-score 22.05 (24.52)
  Skin pMCM2 Mean H-score (StDev), Cycle 1, day 8: 5.05 (2.90)
[2]; Schedule D (30 mg), n = 6, baseline mean H-score 33.32 (23.43)
  Skin pMCM2 Mean H-score (StDev), Cycle 1, day 8: 6.43 (5.17)
[2]; Schedule D (30 mg), n = 6, cycle 1, day 8
  % of pMCM2 inhibition (Change from baseline), skin: 80.7%
Advanced solid tumors; cervical cancer, schedule A (50 mg)
  Duration of SD: 11.33 months
Advanced solid tumors; cervical cancer, schedule D (40 mg)
  Duration of SD: 15.24 months
Advanced solid tumors; cervical squamous cell cancer, schedule A 60 mg
  Duration PR maintained: 2.2 months
Advanced solid tumors; duodenal squamous cell cancer, schedule A 30 mg
  Duration PR maintained: 2.1 months
Advanced solid tumors; esophageal cancer, schedule B 100 mg
  Duration PR maintained: 4.2 months
Advanced solid tumors; esophageal squamous cell cancer, schedule A 50 mg
  Duration PR maintained: 2.7 months
Advanced solid tumors; thymic cancer, schedule A (50 mg)
  Duration of SD: 10.45 months
Advanced solid tumors; Schedule A n = 24
  CR (complete response) as best response: 0 n (%) [95% CI]
Advanced solid tumors; Schedule B n = 23
  CR (complete response) as best response: 0 n (%) [95% CI]
Advanced solid tumors; Schedule D n = 17
  CR (complete response) as best response: 0 n (%) [95% CI]
  ORR (overall response rate), investigator's assessment: 0 n (%) [95% CI]
  PR (partial response) as best response: 0 n (%) [95% CI]
Advanced solid tumors; Schedule E n = 11
  CR (complete response) as best response: 0 n (%) [95% CI]
  ORR (overall response rate), investigator's assessment: 0 n (%) [95% CI]
  PR (partial response) as best response: 0 n (%) [95% CI]
Advanced solid tumors; overall
  Patients achieving a partial response: 5 patients
  Patients with best response of SD: 28 patients
  Share of patients with SD or PR having esophageal, thymic, or cervical cancer: 39%
Advanced solid tumors; overall, 95% confidence interval, 1.94–3.06
  Median progression-free survival: 2.2 months
Advanced solid tumors; schedule A
  Overall response rate (ORR): 13%
Advanced solid tumors; schedule A, 30 mg, cancer type Duodenal
  Best response, individual patient: PR
Advanced solid tumors; schedule A, 30 mg, cancer type Pancreatic
  Best response, individual patient: SD
Advanced solid tumors; schedule A, 30 mg, cancer type Rectal
  Best response, individual patient: PD
Advanced solid tumors; schedule A, 40 mg, cancer type Breast
  Best response, individual patient: PD
Advanced solid tumors; schedule A, 40 mg, cancer type Rectal
  Best response, individual patient: PD
Advanced solid tumors; schedule A, 40 mg, cancer type Unknown
  Best response, individual patient: SD
Advanced solid tumors; schedule A, 60 mg, cancer type Cervical
  Best response, individual patient: PR
Advanced solid tumors; schedule A, 60 mg, cancer type Ovarian
  Best response, individual patient: SD
Advanced solid tumors; schedule A, 60 mg, cancer type Pancreatic
  Best response, individual patient: SD
Advanced solid tumors; schedule B
  Overall response rate (ORR): 9%
[3]
  Cmax threshold for off-target adverse effects (hypotension): 800 ng/mL

Source: publication PMC10035389, “Safety, Tolerability, and Pharmacokinetics of TAK-931, a Cell Division Cycle 7 Inhibitor, in Patients with Advanced Solid Tumors: A Phase I First-in-Human Study” (Cancer Research Communications, 2022)
